This is an account of results in PubChem BioAssay (NCI).

One may read the TGI as the concentration at which net growth stops.

Structures are written as SMILES.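 All cell lines were grown in 96-well plates and treated with compound for 48 hours. TGI is the concentration that stops growth completely.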

Common to all, as to test: DTP human tumour cell line panel, 48 h
Assay [1] deals with HOP-92 NSCLC.
For assay [2], the system named is DU-145 prostate.
The subject of assay [3] is UACC-62 melanoma.
Assay [4] deals with MOLT-4 leukemia.
Assay [5] has as its system MDA-MB-435.
The test system of assay [6] is ACHN renal.
Assay [7] has as its system SK-MEL-28 melanoma.
In assay [8] the test system is KM12 colon.
For assay [9], the system named is NCI-H522 lung.
Assay [10] relates to COLO 205 colon.

With `CC(C)N1CN(c2ccccc2)C2(CCN(CCCC(=O)c3ccc(F)cc3)CC2)C1=O`, the total growth inhibition concentration (TGI) in assay [1] came out at 16.6 µM; in assay [2], 24.2 µM; in [3] it was 38.7 µM; in [4], 47.3 µM; in assay [5] it was 27.6 µM; in [6] it was 42.5 µM. Besides, the concentration for total growth inhibition (TGI) in [7] stood at 36.7 µM; in [8], 42.1 µM; in assay [9], 49.8 µM; in assay [10], 1.7 µM.
